Laboratory results from article PMC2363125 (British Journal of Cancer, 1999).
Several values for one entry are separate records, joined by “and”; a condition that tells them apart may be missing. Equal values may be shown once. Entries after “also recorded” stand apart in the source; their conditions may differ.

Columns and labels:
[1] = tested on: L1210 cells; assay: cells; details: for CC50: Mus musculus, L1210, 16 h, read-out: LC50; for reduction of nolatrexed LC90: absence of salvageable thymidine, abstract
Excerpt: (§1) In particular, inhibition of thymidylate synthase (TS) is an attractive target for antimetabolite chemotherapy because thymine is the only nucleobase found exclusively in DNA and TS is a key enzyme, possibly the rate-limiting step, in DNA synthesis. One locus of action of 5-fluorouracil (5-FU), which is widely used for the treatment of colorectal, breast and head-and- neck cancer, is TS inhibition following its intracellular conversion to 5-FdUMP. […] Inhibition of TS results in the depletion of intracellular dTTP and, as a result of elevated dUMP levels, an accummulation of dUTP. […] In addition, release of nucleic acids from dead cells may result in high local concen- trations of salvageable nucleosides and bases in tumours. Salvage of pre-formed nucleosides is dependent on uptake across the plasma membrane into the cell. At physiological nucle- oside concentrations the principal mode of nucleoside uptake is via the es and ei equilibrative carriers, described as such on the basis of their sensitivity (es) or insensitivity (ei) to the transport inhibitor nitrobenzylmercaptopurine riboside (NBMPR). […] In addition, potentiation of the cytotoxicity of 5-FU was investigated. […] All other chemicals were obtained from Sigma unless stated otherwise. […] For growth inhibition and cytotoxicity assays, cells were adapted to grow in RPMI medium supplemented with 10% (v/v) dialysed serum (dialysed for 24 h at 4C against two changes of 9 volumes of phosphate-buffered saline (PBS) containing 1 g activated charcoal L-1 and a further two changes of 9 volumes of PBS) to remove thymidine. […] The uptake of 100 M thymidine by […] was followed at 2-second intervals over a 12-second time course in the presence or absence of inhibitor in 1% or 5% (v/v) DMSO. […] Exponentially growing L1210 cells were washed with and resus- pended in ice-cold transport buffer (130 mM sodium chloride, 5 mM potassium chloride, 1 mM magnesium chloride, 5 mM NaH2 PO4 , 10 mM glucose and 10 mM HEPES pH 7.4) at 2-4 x 10^7 cells ml-1 . […] Transport was initiated by adding 50 l of 300 M thymidine in transport buffer, containing 25 Ci ml-1 [methyl-3 H]thymidine (Sp. Act. 1.5-2.2 TBq mmol-1; Amersham, UK) and 2 Ci ml-1 [U-14 C]sucrose (17-27 GBq mmol-1; Amersham), to each tube in turn at 1-second intervals, giving final concentrations of: […] in transport buffer 5 mg ml-1 AGP, 100 M thymidine and 1% or 5% (v/v) DMSO inhibitor. […] The tubes were immediately centrifuged at 12 000g for 2 min at room temperature causing the cells to pass through the oil and into the KOH. […] Cell number and viability in each assay was determined by haemocytometer counting using trypan blue exclu- sion. After centrifugation the tubes were capped and cut in the oil layer such that the bottom portion (cells solubilized in KOH) fell into a 20 ml scintillation vial. […] The rate of thymidine uptake in the presence and absence of inhibitor was calculated by unweighted linear regres- sion analysis of thymidine uptake (pmol 10-6 cells) vs time (seconds) using GraphPad PRISMTM software (GraphPad Software Inc. San Diego, CA, USA). […] Kt and Tmax values were calculated using the equation describing a one-site binding hyperbola, fitted using GraphPad PRISM software. […] The DMSO concentration was controlled so as to be present at 1% (v/v) in the final incubation. Replicate aliquots of the remaining cell suspension were counted to obtain a time zero cell count.

[2] = tested on: L1210 cells; assay: Growth inhibition assay, CB3717 with or without thymidine and transport inhibitor, 48 h cell count; assay type: cell-based, murine; details: for potentiation of CB3717 growth inhibition / reversal of thymidine rescue from CB3717 growth inhibition: 1 μM transport inhibitor, data not shown; for % Control cell growth + 3 M CB3717, + 1 M TdR / % Control cell growth + 3 M CB3717, no TdR / % Control cell growth + 10 M CB3717, + 1 M TdR / % Control cell growth + 10 M CB3717, no TdR: 10 μM transport inhibitor, normalized to inhibitor alone
[3] = tested on: thymidine transport (nucleoside transporter) in L1210 cells; assay: Inhibition kinetics of thymidine transport (Kt, Tmax, Dixon plot Ki); details: for Ki: read-out: Ki for inhibition of thymidine uptake, L1210, abstract
Excerpt: as §1

[4] = in vitro; details: mouse
Excerpt: as §1

[5] = tested on: thymidine uptake (nucleoside transport, es and ei equilibrative carriers) in L1210 cells; assay: Nucleoside transport inhibition assay (thymidine uptake, rapid mixing technique); assay type: cell-based, murine; details: for IC50: absence of AGP, point-to-point curve; for IC50 / % inhibition of thymidine uptake: L1210
Excerpt: Antimetabolite inhibitors of de novo purine and pyrimidine synthesis are used extensively in cancer chemotherapeutic regimes (Schilsky, 1992). In particular, inhibition of thymidylate synthase (TS) is an attractive target for antimetabolite chemotherapy because thymine is the only nucleobase found exclusively in DNA and TS is a key enzyme, possibly the rate-limiting step, in DNA synthesis. One locus of action of 5-fluorouracil (5-FU), which is widely used for the treatment of colorectal, breast and head-and- neck cancer, is TS inhibition following its intracellular conversion to 5-FdUMP. […] Inhibition of TS results in the depletion of intracellular dTTP and, as a result of elevated dUMP levels, an accummulation of dUTP. This nucleotide pool imbalance contributes to DNA strand breakage and cell death (Curtin et al, 1991). […] Furthermore, resistance to antimetabolities mediated by nucleoside salvage may increase with malignancy (Fox et al, 1991; Kinsella and Harran, 1991). In addition, release of nucleic acids from dead cells may result in high local concen- trations of salvageable nucleosides and bases in tumours. Salvage of pre-formed nucleosides is dependent on uptake across the plasma membrane into the cell. At physiological nucle- oside concentrations the principal mode of nucleoside uptake is via the es and ei equilibrative carriers, described as such on the basis of their sensitivity (es) or insensitivity (ei) to the transport inhibitor nitrobenzylmercaptopurine riboside (NBMPR). […] Two antifolate TS inhibitors were selected for study: the classical antifolate, CB3717 (N10 -pro- pargyl-5,8-dideazafolic acid), and the non-classical antifolate TS inhibitor, nolatrexed (AG337, Thymitaq, 3,4-dihydro-2-amino- 6-methyl-4-oxo-5-(4-pyridylthio)-quinazoline dihydrochloride) (Webber et al, 1996). In addition, potentiation of the cytotoxicity of 5-FU was investigated. […] MATERIALS AND METHODS Drugs CB3717 (a gift from Zeneca Pharmaceuticals, Alderley Park, UK) was dissolved in 0.15 M sodium hydrogen carbonate and stored at 4C. […] All other chemicals were obtained from Sigma unless stated otherwise. Cell culture Murine leukaemia L1210 cells were used because their nucleoside transport characteristics have been well defined (Crawford et al, 1990). Cells were maintained as exponentially growing cultures (< 8 x 10^5 cells ml-1 ) in RPMI-1640 medium supplemented with 10% (v/v) fetal calf serum (Sigma), at 37C in an atmosphere of 5% carbon dioxide in air. […] For growth inhibition and cytotoxicity assays, cells were adapted to grow in RPMI medium supplemented with 10% (v/v) dialysed serum (dialysed for 24 h at 4C against two changes of 9 volumes of phosphate-buffered saline (PBS) containing 1 g activated charcoal L-1 and a further two changes of 9 volumes of PBS) to remove thymidine. […] Cells were routinely tested to exclude mycoplasma contamination (Chen, 1977). Nucleoside transport inhibition assay Thymidine uptake was assayed in L1210 cells using a modifica- tion of the rapid mixing technique of Wohlheuter et al (1978). The uptake of 100 µM thymidine by […] was followed at 2-second intervals over a 12-second time course in the presence or absence of inhibitor in 1% or 5% (v/v) DMSO. In experiments to determine the effect of AGP, the uptake of thymidine was also measured in the presence of 5 mg ml-1 human AGP (Sigma), which is the upper limit of plasma AGP concentrations in cancer patients, i.e. approx- imately 125 M (Kremer et al, 1988).

[6] = tested on: human cancer cell lines; set-up: method as in P Smith, manuscript in preparation; details: ref P Smith, manuscript in preparation; cited from earlier work
[7] = LC50 alone/LC50 + 1 μM inhibitor
[8] = inhibitor 1 μM, no AGP, 100 μM thymidine
[9] = inhibitor 10 μM + 5 mg ml-1 AGP
[10] = inhibitor 10 μM, no AGP, 100 μM thymidine

Row | Structure (SMILES) | potentiation of CB3717 growth inhibition [2] | % Control cell growth + 3 M CB3717, + 1 M TdR ([2]; 48 h) [%] | % Control cell growth + 3 M CB3717, no TdR ([2]; 48 h) [%] | % Control cell growth + 10 M CB3717, + 1 M TdR ([2]; 48 h) [%] | % Control cell growth + 10 M CB3717, no TdR ([2]; 48 h) [%] | IC50 [5] | % inhibition of thymidine uptake [5, 8] [%] | % inhibition of thymidine uptake [5, 9] [%] | % inhibition of thymidine uptake [5, 10] [%] | other results
1 | O=c1[nH]cc(F)c(=O)[nH]1 [5-FU, 5-fluorouracil] | – | – | – | – | – | – | – | – | – | CC50 [1]: 3.7 µM
2 | C#CCN(Cc1ccc2nc(N)[nH]c(=O)c2c1)c1ccc(C(=O)N[C@@H](CCC(=O)O)C(=O)O)cc1 [CB3717, N10-propargyl-5,8-dideazafolate, reference compound] | – | – | – | – | – | – | – | – | – | % Control cell growth, 3 M CB3717, + 1 M TdR ([2]; No inhibitor, 48 h): 104%; % Control cell growth, 3 M CB3717, no TdR ([2]; No inhibitor, 48 h): 40%; % Control cell growth, 10 M CB3717, + 1 M TdR ([2]; No inhibitor, 48 h): 107%; % Control cell growth, 10 M CB3717, no TdR ([2]; No inhibitor, 48 h): 5%
3 | OCCN(CCO)c1nc(N2CCCCC2)c2nc(N(CCO)CCO)nc(N3CCCCC3)c2n1 [Dipyridamole, 2,6-bis-(diethanolamino)-4,8-di-piperidino-pyrimidopyrimidine] | modest potentiation | 4 | 4 | 1 | 0 | – | – | – | – | reversal of thymidine rescue from CB3717 growth inhibition [2]: partial reversal; type of inhibition of thymidine uptake ([3]; L1210): mixed-type inhibition; apparent Tmax of thymidine transport ([3]; in the presence of 0.3 μM inhibitor, L1210): 8.4 pmol/10-6 cells/s; Ki [3]: 0.28 µM; activity at 16 h, 1 µM [4]: 100%; EF50 (enhancement factor), nolatrexed [1, 7]: 1.3; EF90 (enhancement factor), nolatrexed ([1]; LC90 alone/LC90 + 1 μM inhibitor, listed as DP): 7.5 and 6.1; reduction of nolatrexed LC90 [1]: > threefold; potentiation of 5-FU cytotoxicity ([1]; mouse): Significant potentiation
4 | CC1(C)OCC(COc2nc(N3CCCCC3)c3nc(OCC4COC(C)(C)O4)nc(N4CCCCC4)c3n2)O1 (centres unmarked) [NU3026, 2,6-di-(2,2-dimethyl-1,3-dioxolan-4-yl)-methoxy-4,8-di-piperidinopyrimido-pyrimidine] | modest potentiation | 26 | 8 | 20 | 1 | 1.2 µM and 1.1 µM | 47 | 62 | 87 | –
5 | COCC(COc1nc(N2CCCCC2)c2nc(OCC(COC)OC)nc(N3CCCCC3)c2n1)OC (centres unmarked) [NU3059, 2,6-bis-(2,3-dimethoxypropoxy)-4,8-di-piperidino-pyrimidopyrimidine] | modest potentiation | 10 | 5 | 7 | 0 | 1.9 µM | 38 | 67 | 87 | reversal of thymidine rescue from CB3717 growth inhibition [2]: partial reversal
6 | COCCN(CCOC)c1nc(N2CCCCC2)c2nc(N(CCOC)CCOC)nc(N3CCCCC3)c2n1 [NU3060, 2,6-bis[N,N-di(2-methoxy)ethyl]-4,8-di-piperidino-pyrimidopyrimidine] | – | 59 | 29 | 37 | 3 | 2.1 µM | 29 | 43 | 86 | –
7 | COc1ccc(CNc2nc(N(CCO)CCO)nc3c(NCc4ccc(OC)cc4)nc(N(CCO)CCO)nc23)cc1 [NU3076] | – | – | – | – | – | 0.25 µM | 56 | 89 | 96 | type of inhibition of thymidine uptake ([3]; L1210): mixed-type inhibition; Ki [3]: 0.1 µM; block of thymidine rescue from TS inhibitor cytotoxicity [6]: can block thymidine rescue; cell survival, inhibitor alone (cytotoxic per se) ([1]; 1 μM inhibitor alone, L1210): 100%; prevention of thymidine rescue from nolatrexed cytotoxicity ([1]; 1 μM inhibitor, 10 μM nolatrexed + 1 μM thymidine): partially blocked; also recorded: reduced but not blocked completely; potentiation of 5-FU cytotoxicity ([1]; 1 μM inhibitor, high 5-FU concentrations (30 and 100 μM), not significant at lower concentrations): Significant potentiation; EF50 (enhancement factor), 5-FU [1, 7]: 1.1; EF50 (enhancement factor), nolatrexed [1, 7]: 1.6; EF90 (enhancement factor), 5-FU ([1]; LC90 alone/LC90 + 1 μM inhibitor): 1.3; reduction of nolatrexed LC90 [1]: > threefold; effect of AGP on inhibition of thymidine uptake ([5]; AGP 5 mg ml-1, inhibitor 1 and 10 μM): not significantly affected; % inhibition of thymidine uptake ([5]; inhibitor 1 μM + 5 mg ml-1 AGP): 46%
8 | Cc1ccc2nc(N)[nH]c(=O)c2c1Sc1ccncc1.Cl.Cl [Nolatrexed, 3,4-dihydro-2-amino-6-methyl-4-oxo-5-(4-pyridylthio)-quinazoline dihydrochloride] | – | – | – | – | – | – | – | – | – | effect of 1 μM thymidine on cytotoxic effect of 10 μM nolatrexed [1]: completely prevented; cells surviving ([1]; 10 μM nolatrexed alone, 16 h): 10-20%; CC50 [1]: 3.1 µM
